Where “and” joins values, the source holds several entries; their conditions need not be identical. Equal values may be shown once. Entries after “also recorded” stand apart in the source; their conditions may differ. Read-outs that look alike come from different tables or passages of the source.
Experiments:
[1] = ref Katz et al., 1999; cited from earlier work
D1 receptor = conditions: ref Katz et al., 1999; cited from earlier work
[2] = cited from earlier work; for effect on locomotor activity: ref Desai et al. (2005)
[3] = ref Abrahams et al., 1998; Katz et al., 1999; cited from earlier work
human DA D1 receptor = human DA D1 receptor (Homo sapiens, UniProt P21728); assay: Competitive inhibition of [3H]SCH23390 binding, D1 receptor, HEK293 membranes; conditions: [3H]SCH23,390
[4] = tested on: dopamine, norepinephrine and serotonin transporters; assay: Binding screen at 10 μM, monoamine transporters
[5] = tested on: orphanin FQ/nociception; GABAA; histamine H1, 2, 3, and 4; muscarinic M1, 2, 3, 4, and 5; NMDA/MK801; assay: Binding screen at 10 μM, other receptors
human D1 DA receptor = human D1 DA receptor (Homo sapiens, UniProt P21728); assay: cAMP formation in HEK cells expressing D1 receptor; assay type: cell-based
human DA D4 receptor = human DA D4 receptor (Homo sapiens, UniProt P21917); assay type: binding
[6] = target: human DA D1, D2, D3, D4 and D5 receptors; assay: Dopamine receptor binding, statements grouped over subtypes
[7] = tested on: mu, delta, and kappa opioid receptors; assay: Opioid receptor binding, [3H]diprenorphine; conditions: 10 μM
[8] = HPLC analysis of l-ICP and possible metabolites in mouse serum; assay type: in vivo; conditions: 20 mg/kg i.p., serum 30 min after injection, HPLC UV 280 nm
CD-1 mice [9] = assay: Repeated cocaine-induced locomotor sensitization; assay type: in vivo, mouse
CD-1 mice [10] = assay: Conditioned place preference; assay type: in vivo, mouse; conditions: l-ICP 10 mg/kg i.p. by itself; pre-test -24 ± 46 s; P>0.05
CD-1 mice [11] = assay: Spontaneous locomotor activity, non-habituated mice; assay type: in vivo, mouse; conditions: 10 mg/kg i.p.; for time of inhibition of spontaneous locomotor activity: mouse; for inhibition of locomotor activity (AUC) vs vehicle, 30-100 min: non-habituated mice
[12] = target: human dopamine D4 receptor (Homo sapiens, UniProt P21917); assay: [35S]GTPγS binding assay, D4 receptor membranes; assay type: biochemical; conditions: 1 μM
CD-1 mice [13] = assay: Acute cocaine-induced locomotor hyperactivity
[14] = tested on: alpha1A, 1B, 2A, 2B, and 2C, and beta1 and 2 adrenergic receptors; assay: Binding screen at 10 μM, adrenergic receptors
[15] = tested on: More than 40 receptors, ion channels, and transporters; assay: Screening for pharmacological targets by binding assays; conditions: screen at 10 μM
human D5 DA receptor = human D5 DA receptor (Homo sapiens, UniProt P21918); assay: cAMP formation in HEK cells expressing D5 receptor; assay type: cell-based
human DA D3 receptor = human DA D3 receptor (Homo sapiens, UniProt P35462); assay type: binding; conditions: read-out: Ki, D3; [3H]N-Methyl-spiperone; HEK293 membranes
[16] = target: human dopamine D3 receptor (Homo sapiens, UniProt P35462); assay: [35S]GTPγS binding assay, D3 receptor membranes; assay type: biochemical; conditions: 1 μM
[17] = tested on: 5-HT1A, 1B, 1E, 2A, 2C, 3, 4, 5A, 6, and 7 serotonin receptors; assay: Binding screen at 10 μM, serotonin receptors
[18] = ref Sun et al., 2009; cited from earlier work
[19] = target: D1-like dopamine receptors in calf striatal membranes; conditions: read-out: Ki, D1-like receptors, bovine striatal membranes; ref Xu et al. (1989); cited from earlier work
[20] = tested on: patients addicted only to heroin; conditions: treatment for one month; ref Yang et al., 2008; cited from earlier work
human DA D5 receptor = human DA D5 receptor (Homo sapiens, UniProt P21918); assay: biochemical; conditions: D5, [3H]SCH23,390, HEK293 membranes
D1 = conditions: 10 μM; ref Mantsch et al. (2007); cited from earlier work
D2 = conditions: 10 μM; ref Mantsch et al. (2007); cited from earlier work
human DA D2 receptor = human DA D2 receptor (Homo sapiens, UniProt P14416); assay: biochemical
D3 = conditions: 10 μM; ref Mantsch et al. (2007); cited from earlier work
rats = conditions: cited from earlier work; for reduction of locomotor activity over 2 h: 60 min pretreatment, rats, ref Mantsch et al., 2007
[21] = l-ICP 1, 3 or 10 mg/kg i.p. + saline
[22] = l-ICP 3 and 10 mg/kg i.p., 10 min before cocaine 20 mg/kg i.p.

Compound: Oc1cc2c(cc1O)C(c1ccccc1)CNCC2 (stereo not shown) [SKF 38393]
- effect on cocaine-induced hyperlocomotion [1]: produced dose-related decreases in cocaine-induced hyperlocomotion
- efficacy of a full agonist (D1 receptor): ~ 50%
- effect on locomotor activity [2]: produced limited changes in locomotor activity

Compound: CN1CCc2cc(O)c(O)cc2C(c2ccccc2)C1 (stereo not shown) [SKF 75670]
- effect on locomotor activity [2]: produced locomotor stimulation similar to full agonists

Compound: C=CCN1CCc2cc(O)c(O)cc2C(c2ccccc2)C1 (stereo not shown) [SKF 77434]
- effect on cocaine-induced hyperlocomotion [1]: produced dose-related decreases in cocaine-induced hyperlocomotion
- efficacy of a full agonist (D1 receptor): ~ 50%
- effect on locomotion ([2]; ref Abrahams et al., 1998, Katz et al., 1999): did not increase locomotion
- effect on locomotor activity [2]: produced locomotor stimulation similar to full agonists
- induction of CPP [3]: nor did it cause CPP

Compound: COc1cc2c(cc1O)[C@@H]1Cc3ccc(OC)c(OC)c3CN1CC2 [l-ICP, l-isocorypalmine]
- binding to dopamine, norepinephrine and serotonin transporters [4]: did not bind
- binding to orphanin FQ, GABAA, histamine, muscarinic, NMDA/MK801 receptors [5]: did not bind significantly
- Ki (human DA D4 receptor; read-out: Ki, D4, [3H]N-Methyl-spiperone, HEK293 membranes): 77.4 ± 17.5 nM
- Ki ([6]; read-out: Ki values for D1 and D5 receptors, range over D1 and D5): 5 to 10 nM
- Ki ([6]; read-out: Ki values for D2, D3 and D4 receptors, range over D2, D3 and D4): 37 to 78 nM and 37 to 77 nM
- binding to mu, delta, and kappa opioid receptors [7]: did not bind significantly
- compounds identified in serum / metabolism [8]: not metabolized to a significant extent in 30 min
- effect of repeated l-ICP alone on locomotor activity, days 1-5 (CD-1 mice [9]; 10 mg/kg i.p., no cocaine, P=0.724 vs veh/sal): did not affect locomotor activity
- effect on cocaine-induced hyperlocomotion, day 1 (CD-1 mice [9]; l-ICP 10 mg/kg i.p. 10 min before cocaine 20 mg/kg i.p., P=0.003 vs veh/cocaine): significantly reduced
- effect on cocaine-induced hyperlocomotion, day 5 (CD-1 mice [9]; l-ICP 10 mg/kg i.p. once a day, P<0.001 vs veh/cocaine): significantly reduced cocaine-induced hyperlocomotion on day 5
- CPP score, post-test, l-ICP/saline (CD-1 mice [10]): -137 ± 70 s
- time of inhibition of spontaneous locomotor activity (CD-1 mice [11]): < 30 min
- inhibition of locomotor activity (AUC) vs vehicle, 30-100 min (CD-1 mice [11]): no significant inhibition; also recorded: had no effect
- antagonist effect on DA dose-response curve, [35S]GTPγS, D4 [12]: significantly shifted the DA-induced D2, D3 and D4 dose-response curves to the right without affecting maximal response
- effect on ambulatory activity in saline-treated habituated mice (CD-1 mice [13]; [21]): had no effect
- effect on non-ambulatory repetitive activity in saline-treated habituated mice (CD-1 mice [13]; [21]): had no effect
- effect on total activity in saline-treated habituated mice (CD-1 mice [13]; [21]): did not reduce spontaneous locomotor activity; also recorded: had no effect
- effect on acute cocaine-induced hyperlocomotion (summary) (CD-1 mice [13]; l-ICP 3 and 10 mg/kg): significantly reduced acute cocaine-induced hyperlocomotion
- effect on cocaine-induced ambulatory activity (CD-1 mice [13]; [22]): dose-dependently decreased cocaine-induced hyperactivities
- effect on cocaine-induced non-ambulatory repetitive activity (CD-1 mice [13]; [22]): dose-dependently decreased cocaine-induced hyperactivities
- effect on cocaine-induced total activity (CD-1 mice [13]; [22]): dose-dependently decreased cocaine-induced hyperactivities
- binding to adrenergic receptors [14]: did not bind significantly
- binding to screened pharmacological targets (panel result) [15]: had significant affinities only for DA receptors
- Emax, D5R, cAMP formation (human D5 DA receptor): 65 % of DA and 65±10 % of DA
- EC50 (human D5 DA receptor; read-out: EC50, D5R, cAMP formation): 20 ± 4 nM
- Ki (human DA D3 receptor): 37.3 ± 3.4 nM
- antagonist effect on DA dose-response curve, [35S]GTPγS, D3 [16]: significantly shifted the DA-induced D2, D3 and D4 dose-response curves to the right without affecting maximal response
- binding to serotonin receptors [17]: did not bind significantly

Compound: COc1cc2c(cc1O)[C@@H]1Cc3ccc(O)c(OC)c3CN1CC2 [l-Stepholidine]
- blood-brain barrier penetration [18]: penetrates the blood-brain barrier well

Compound: COc1cc2c(cc1OC)[C@@H]1Cc3ccc(OC)c(OC)c3CN1CC2 [l-THP, l-tetrahydropalmatine]
- Ki [19]: 1100 nM
- Ki (human DA D4 receptor): > 1000 nM
- craving and withdrawal symptoms during treatment [20]: significantly reduced craving and withdrawal symptoms
- enhancement of abstinence rate three months after discharge [20]: three-fold
- time of inhibition of spontaneous locomotor activity (CD-1 mice [11]): > 90 min
- inhibition of locomotor activity (AUC) vs vehicle, 30-100 min (CD-1 mice [11]): about 60%
- Ki (human DA D5 receptor): ~300 nM
- binding to screened pharmacological targets (panel result) [15]: none of over 50 pharmacological targets bound l-THP with high affinity
- inhibition of binding to D1 (D1): 97%
- inhibition of binding to D2 (D2): 87%
- Ki (human DA D2 receptor): > 1000 nM
- inhibition of binding to D3 (D3): 83%
- reduction of locomotor activity over 2 h (rats; 3.75 mg/kg i.p.): ~ 40%
- reduction of locomotor activity over 2 h (rats; 7.5 mg/kg i.p.): ~ 90%
- reduction of locomotion over 2 h (rats; 10 mg/kg, ref Xi et al. (2007)): ~ 80%
